Data as given in patent publication US20220002268A1, “NOVEL HETEROARYL-TRIAZOLE AND HETEROARYL-TETRAZOLE COMPOUNDS AS PESTICIDES” (Bayer Aktiengesellschaft, priority 2019, published 2022).

Legend:
Myzus persicae = Myzus persicae oral test; format: in vivo; conditions: 120 h, after 5 days
Procedure: Myzus persicae—Oral Test Solvent: 100 parts by weight acetone
(§1) To produce a suitable preparation of active compound, 1 part by weight of active compound is mixed with the stated amount of solvent, and the concentrate is diluted with water to the desired concentration.
50 μl compound solution is filled in microtiter plates and 150 μl IPL41 insect medium (33%+15% sugar) is added to obtain a total volume of 200 μl per well. Afterwards the plates are sealed with parafilm through which a mixed population of the green peach aphid (Myzus persicae) can suck on the compound preparation.
After 5 days mortality in % is determined. 100% means all aphids have been killed and 0% means none of the aphids have been killed.

Ctenocephalides felis = Ctenocephalides felis oral test; format: in vivo; conditions: 48 h, 100 ppm in cattle blood, after 2 days
Procedure: Ctenocephalides felis—Oral Test Solvent: dimethyl sulfoxide
To produce a suitable preparation of active compound, 10 mg of active compound are dissolved in 0.5 ml solvent, and the concentrate is diluted with cattle blood to the desired concentration.
Approximately 20 adult unfed cat fleas (Ctenocephalides felis) are placed in flea chambers. The blood chamber, sealed with parafilm on the bottom, are filled with cattle blood supplied with compound solution and placed on the gauze covered top of the flea chamber, so that the fleas are able to suck the blood. The blood chamber is heated to 37° C. whereas the flea chamber is kept at room temperature.
After 2 days mortality in % is determined. 100% means all the fleas have been killed; 0% means none of the fleas have been killed.

Spodoptera frugiperda = Spodoptera frugiperda spray test; format: in vivo; conditions: 168 h, after 7 days
Procedure: Suodontera frugiuerda—Spray Test Solvent: 78.0 parts by weight acetone • 1.5 parts by weight dimethylformamide Emulsifier: alkylarylpolyglycol ether
(§2) To produce a suitable preparation of active compound, 1 part by weight of active compound is mixed with the stated amount of solvents and is diluted with water, containing an emulsifier concentration of 1000 ppm, to the desired concentration. Further test concentrations are prepared by dilution with emulsifier containing water.
Maize (Zea mays) leaf sections are sprayed with a preparation of the active ingredient of the desired concentration. Once dry, the leaf sections are infested with fall armyworm larvae (Spodoptera frugiperda).
After 7 days mortality in % is determined. 100% means all caterpillars have been killed and 0% means none of the caterpillars have been killed.

Meloidogyne incognita = Meloidogyne incognita test; format: in vivo; conditions: 20 ppm, after 14 days
Procedure: Meloidogyne incognita—Test Solvent: 125.0 parts by weight of acetone
as §1
Vessels are filled with sand, a solution of the active ingredient, a suspension containing eggs and larvae of the southern root-knot nematode (Meloidogyne incognita) and salad seeds. The salad seeds germinate and the seedlings grow. Galls develop in the roots.
After 14 days the nematicidal activity is determined on the basis of the percentage of gall formation. 100% means no galls were found and 0% means the number of galls found on the roots of the treated plants was equal to that in untreated control plants.

Diabrotica balteata = Diabrotica balteata spray test; format: in vivo; conditions: 168 h, 160 gg/well, after 7 days, read-out: efficacy (seedlings grown)
Procedure: Diabrotica balteata—Spray Test Solvent: 78.0 parts by weight of acetone • • 1.5 parts by weight of dimethylformamide Emulsifier: alkylarylpolyglycol ether
as §2, with “solvent,” for “solvents”, “and the concentrate” for “and”
Soaked wheat seeds (Triticum aestivum) are placed in a multiple well plate filled with agar and some water and are incubated for 1 day to germinate (5 seeds per well). The germinated wheat seeds are sprayed with a test solution containing the desired concentration of the active ingredient. Afterwards each unit is infected with 10-20 larvae of the banded cucumber beetle (Diabrotica balteata).
After 7 days efficacy in % is determined. 100% means all the seedlings have grown up like in the untreated, uninfected control; 0% means none of the seedlings have grown.

Boophilus microplus = Boophilus microplus injection test; format: in vivo; conditions: Rhipicephalus microplus, 168 h; 20 gg/animal, injection into abdomen, after 7 days; read-out: efficacy (infertile eggs)
Procedure: Boophilus microplus—Injection Test Solvent: dimethyl sulfoxide To produce a suitable preparation of active compound, 10 mg of active compound are dissolved in 0.5 ml solvent, and the concentrate is diluted with solvent to the desired concentration. Five adult engorged female ticks (Boophilus microplus) are injected with 1 μl compound solution into the abdomen. The ticks are transferred into replica plates and incubated in a climate chamber. After 7 days egg deposition of fertile eggs is monitored. Eggs where fertility is not visible are stored in a climate chamber till hatching after about 42 days. An efficacy of 100% means all eggs are infertile; 0% means all eggs are fertile.

Phaedon cochleariae = Phaedon cochleariae spray test; format: in vivo; conditions: 168 h, after 7 days
Procedure: Phaedon cochleariae—Spray Test Solvent: 78.0 parts by weight of acetone • • 1.5 parts by weight of dimethylformamide Emulsifier: alkylarylpolyglycol ether
as §2
Chinese cabbage (Brassica pekinensis) leaf disks are sprayed with a preparation of the active ingredient of the desired concentration. Once dry, the leaf disks are infested with mustard beetle larvae (Phaedon cochleariae).
After 7 days mortality in % is determined. 100% means all beetle larvae have been killed and 0% means none of the beetle larvae have been killed.

[1] = log P by HPLC on reversed phase, neutral range; format: physicochemical; conditions: reversed phase HPLC column, LC-UV, 0.001 molar ammonium acetate solution in water and acetonitrile
Procedure: (§3) Measurement of log P values was performed according to EEC directive 79/831 Annex V.A8 by HPLC (High Performance Liquid Chromatography) on reversed phase columns with the following methods. Instrument(s): Agilent 1100 LC system, Agilent MSD system, HTS PAL; Waters IClass Acquity UPLC, SQD2 (MS), PDA (UV). […] Calibration was done with straight-chain alkan-2-ones (with 3 to 16 carbon atoms) with known log P values (measurement of log P values using retention times with linear interpolation between successive alkanones). Lambda-max-values were determined using UV-spectra from 200 nm to 400 nm and the peak values of the chromatographic signals.

[2] = log P by HPLC on reversed phase, acidic range; format: physicochemical; conditions: reversed phase HPLC column, LC-UV, 0.1% formic acid in water and acetonitrile
Procedure: as §3, with “methods.” for “methods. Instrument(s): Agilent 1100 LC system, Agilent MSD system, HTS PAL; Waters IClass Acquity UPLC, SQD2 (MS), PDA (UV).”

Tetranychus urticae = Tetranychus urticae spray test OP-resistant; format: in vivo; conditions: 144 h, after 6 days
Procedure: Tetranychus urticae—Spray Test OP-Resistant Solvent: 78.0 parts by weight acetone • 1.5 parts by weight dimethylformamide Emulsifier: alkylarylpolyglycol ether
as §2
French bean (Phaseolus vulgaris) leaf disks infected with all instars of the two spotted spidermite (Tetranychus urticae), are sprayed with a preparation of the active ingredient of the desired concentration.
After 6 days mortality in % is determined. 100% means all spider mites have been killed and 0% means none of the spider mites have been killed.

[3] = test system: Aedes aegypti strain MONHEIM; assay: Aedes aegypti test (AEDSAE surface treatment & contact assay); format: in vivo; conditions: surface concentration 20 mg/m^2, 30 minutes exposure, 24 hours after contact, read-out: efficacy (mortality)
Procedure: Aedes aegyti Test (AEDSAE Surface Treatment & Contact Assay) Solvent: Aceton+2000 ppm rapeseed oil methyl ester (RME)
In order to produce a sufficient, active ingredient containing solution it is necessary to solve the test compound in the solvent-mix (acetone at 2 mg/ml/RME 2000 ppm). This solution is pipetted onto a glazed tile and after evaporation of the acetone, adult mosquitoes of the species Aedes aegypti strain MONHEIM are placed onto the dried surface. The exposure time is 30 minutes.
Mortality in percent (%) is determined 24 hours after contact to the treated surface. 100% mortality means that all tested insects are dead, whereas 0% means that no insect died.

Nezara viridula = Nezara viridula spray test; format: in vivo; conditions: 96 h, after 4 days
Procedure: Nezara viridula—Spray Test Solvent: 78.0 parts by weight of acetone • • 1.5 parts by weight of dimethylformamide Emulsifier: alkylarylpolyglycol ether
as §2, with “solvent,” for “solvents”, “and the concentrate” for “and”
Barley plants (Hordeum vulgare) infested with larvae of the southern green stink bug (Nezara viridula) are sprayed with a test solution containing the desired concentration of the active ingredient.
After 4 days mortality in % is determined. 100% means all the stink bugs have been killed; 0% means none of the stink bugs have been killed.

Nilaparvata lugens = Nilaparvata lugens spray test; format: in vivo; conditions: 96 h, after 4 days
Procedure: Nilaparvata lugens—Spray Test Solvent: 78.0 parts by weight of acetone • • 1.5 parts by weight of dimethylformamide Emulsifier: alkylarylpolyglycol ether
as §2
Rice plants (Oryza sativa) are sprayed with a preparation of the active ingredient of the desired concentration and the plants are infested with the brown planthopper (Nilaparvata lugens).
After 4 days mortality in % is determined. 100% means all planthoppers have been killed and 0% means none of the planthoppers have been killed.

**Q.** For `O=C(c1cc(Cl)cc(C(F)(F)F)c1)N(Cc1ncnn1-c1ncccn1)CC1CC1` [Example I-001, 3-Chloro-N-(cyclopropylmethyl)-N-{[1-(pyrimidin-2-yl)-1H-1,2,4-triazol-5-yl]methyl}-5-(trifluoromethyl)benzamide], which mortality at 20 ppm (Myzus persicae) is on record?
**A.** 100%

**Q.** And the mortality at 100 ppm (Ctenocephalides felis)?
**A.** 95%

**Q.** What about the mortality at 500 g/ha (Spodoptera frugiperda) of the same molecule?
**A.** 100%

**Q.** What about the “nematicidal activity (gall formation)” value (Meloidogyne incognita) of the same molecule?
**A.** 90%

**Q.** What about the pest or weed control at 160 µg/well (Diabrotica balteata) of the same molecule?
**A.** 100%

**Q.** What about the pest or weed control at 0.02 mg (Boophilus microplus) of the same molecule?
**A.** 100%

**Q.** What about the mortality at 500 g/ha (Phaedon cochleariae) of the same molecule?
**A.** 100%

**Q.** With `c1cnc(-n2ncnc2CNCC2CC2)nc1` [a-001, 1-cyclopropyl-N-{[1-(pyrimidin-2-yl)-1H-1,2,4-triazol-5-yl]methyl}methanamine] as the molecule, how does the chromatographic logP [1] read?
**A.** 0.83

**Q.** What about the chromatographic logP [2] of the same molecule?
**A.** 0.83

**Q.** Which mortality at 500 g/ha (Tetranychus urticae) does the source give for `O=C(NC1(c2ncnn2-c2ncccn2)CC1)c1cc(Cl)cc(OC(F)(F)F)c1` [Example I-016] here?
**A.** 90%

**Q.** With `O=C(c1cc(C(F)(F)F)cc(C(F)(F)F)c1)N(Cc1ncnn1-c1ncccn1)CC1CC1` [Example I-004] as the molecule, how does the mortality at 20 ppm (Myzus persicae) read?
**A.** 100%

**Q.** What about the mortality at 20 mg/m2 [3] of the same molecule?
**A.** 85 to 100%

**Q.** What about the mortality at 100 ppm (Ctenocephalides felis) of the same molecule?
**A.** 100%

**Q.** And the mortality at 500 g/ha (Spodoptera frugiperda)?
**A.** 100%

**Q.** What about the mortality at 500 g/ha (Nezara viridula) of the same molecule?
**A.** 100%

**Q.** What about the mortality at 500 g/ha (Nilaparvata lugens) of the same molecule?
**A.** 100%

**Q.** And the pest or weed control at 160 µg/well (Diabrotica balteata)?
**A.** 100%

**Q.** What about the pest or weed control at 0.02 mg (Boophilus microplus) of the same molecule?
**A.** 100%

**Q.** And the mortality at 500 g/ha (Phaedon cochleariae)?
**A.** 100%
